Common to all, as to test: MTT cell proliferation assay
Holding throughout (type): cell-based
On the technique in general: Formazan colour is commonly taken as a measure of viable cells.

One test has as its system Z138 cells. Conditions: Homo sapiens, Z-138, Z138 cells, approximately 64-72 hours incubation. In a few lines: (§1)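 5,000-10,000 cells/well, overnight attach; 8 conc., 1 nM–30 μM; MTT ~4 h; formazan solubilized, OD 490 nm; % inhibition = (1−(ODo/OD))×100 vs neg. control; mostly duplicate, mean±SE.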
The subject of a further test is 3T3 cells. Conditions: Mus musculus, NIH3T3, approximately 64-72 hours incubation. Summed up: as §1
The test system of a further test is MS751 cells. Conditions: Homo sapiens, MS751, MS751 cells, approximately 64-72 hours incubation. Summed up:
as §1

[1] abbreviates: read-out: MTT Assay IC50, Z-138.
Where [2] appears, read: read-out: MTT Assay IC50, MS-751.
Where [3] appears, read: read-out: MTT Assay IC50 MS-751.

Where two headings read alike, the source gives them in different places.

Consider `Nc1ccc(/C=C/C(=O)NCc2cc3cc(C(F)(F)F)cc(-c4ccc(C(=O)N5CCC(F)(F)CC5)cc4)c3o2)cn1` [Compound 702, (E)-3-(6-aminopyridin-3-yl)-N-((7-(4-(4,4-difluoropiperidine-1-carbonyl)phenyl)-5-(trifluoromethyl)benzofuran-2-yl)methyl)acrylamide], for which the 50% inhibitory concentration (IC50) with Z138 cells (setting [1]) was 100 to 5000 nM; in the test with 3T3 cells (read-out: MTT Assay IC50, 3T3), over 10 µM; with MS751 cells (setting [2]), 5000 to 10000 nM.
Turning to `CC1(C)CN(S(=O)(=O)c2ccc(-c3cc(Cl)c4oc(CNC(=O)/C=C/c5ccc(N)nc5)cc4c3)cc2)C1` [Compound 555, (E)-3-(6-aminopyridin-3-yl)-N-((7-chloro-5-(4-(3,3-dimethylazetidin-1-ylsulfonyl)phenyl)benzofuran-2-yl)methyl)acrylamide], the IC50 in the test with Z138 cells (read-out: MTT Assay IC50 Z-138) is 100 to 5000 nM; in the test with 3T3 cells (read-out: MTT Assay IC50 3T3), over 10 µM; in the test on MS751 cells (setting [3]) it was 100 to 5000 nM.
For the compound `Nc1ccc(/C=C/C(=O)NCc2cc3cc(-c4ccc(C(=O)N5CCC(F)(F)CC5)cn4)c(C(F)(F)F)cc3o2)cn1` [Compound 664, (E)-3-(6-aminopyridin-3-yl)-N-((5-(5-(4,4-difluoropiperidine-1-carbonyl)pyridin-2-yl)-6-(trifluoromethyl)benzofuran-2-yl)methyl)acrylamide], the IC50 in the test with Z138 cells (setting [1]) was over 10000 nM; in the test on 3T3 cells (read-out: MTT Assay IC50, 3T3), over 10 µM; with MS751 cells (setting [2]) it was over 10000 nM.
As to `Nc1ccc(/C=C/C(=O)NCc2cc3cc(-c4ccc(S(=O)(=O)N5CC(F)(F)C5)cc4)cc(Cl)c3o2)cn1` [Compound 642, (E)-3-(6-aminopyridin-3-yl)-N-((7-chloro-5-(4-(3,3-difluoroazetidin-1-ylsulfonyl)phenyl)benzofuran-2-yl)methyl)acrylamide], the IC50 in the test on Z138 cells (read-out: MTT Assay IC50 Z-138) was 100 to 5000 nM; in the test with 3T3 cells (read-out: MTT Assay IC50 3T3) it was over 10 µM; in the test on MS751 cells (setting [3]), 100 to 5000 nM.
Consider `Nc1ccc(/C=C/C(=O)NCc2cc3cc(-c4ncc(C(=O)N5CCOCC5)cn4)cc(Cl)c3o2)cn1` [Compound 583, (E)-3-(6-aminopyridin-3-yl)-N-((7-chloro-5-(5-(morpholine-4-carbonyl)pyrimidin-2-yl)benzofuran-2-yl)methyl)acrylamide], for which the IC50 is 100 to 5000 nM with Z138 cells (read-out: MTT Assay IC50 Z-138), over 10 µM in the test on 3T3 cells (read-out: MTT Assay IC50 3T3) and 100 to 5000 nM in the test with MS751 cells (setting [3]).
Consider `Nc1ccc(/C=C/C(=O)NCc2cc3cc(-c4ccc(C(=O)N5CCC(F)(F)CC5)cc4F)cc(-c4cccnc4)c3o2)cn1` [Compound 748, (E)-3-(6-aminopyridin-3-yl)-N-((5-(4-(4,4-difluoropiperidine-1-carbonyl)-2-fluorophenyl)-7-(pyridin-3-yl)benzofuran-2-yl)methyl)acrylamide], for which the IC50 in the test on Z138 cells (setting [1]) is under 100 nM; with 3T3 cells (read-out: MTT Assay IC50, 3T3), 0.1 to 5 µM; in the test with MS751 cells (setting [2]) it was under 100 nM.
In the case of `Nc1ccc(/C=C/C(=O)NCc2cc3cc(-c4ccc(C(=O)N5CCC(F)(F)CC5)cc4)cc(-c4c(F)cc(F)cc4F)c3o2)cn1` [Compound 697, (E)-3-(6-aminopyridin-3-yl)-N-((5-(4-(4,4-difluoropiperidine-1-carbonyl)phenyl)-7-(2,4,6-trifluorophenyl)benzofuran-2-yl)methyl)acrylamide], the IC50 with Z138 cells (setting [1]) is under 100 nM; with 3T3 cells (read-out: MTT Assay IC50, 3T3) it was 0.1 to 5 µM; in the test on MS751 cells (setting [2]), under 100 nM.
Take `Cc1noc(-c2ccc(F)cc2)c1-c1cc(C(F)(F)F)c2oc(CNC(=O)/C=C/c3ccc(N)nc3)cc2c1` [Compound 648, (E)-3-(6-aminopyridin-3-yl)-N-((5-(5-(4-fluorophenyl)-3-methylisoxazol-4-yl)-7-(trifluoromethyl)benzofuran-2-yl)methyl)acrylamide]: the IC50 in the test with Z138 cells (read-out: MTT Assay IC50 Z-138) was 100 to 5000 nM; in the test with 3T3 cells (read-out: MTT Assay IC50 3T3), over 10 µM; with MS751 cells (setting [3]) it was 100 to 5000 nM.
For `Nc1ccc(/C=C/C(=O)NCc2cc3cc(-c4ccc(C(=O)N5CCC(F)(F)CC5)cc4)cc(-c4cc(Cl)cc(Cl)c4)c3o2)cn1` [Compound 700, (E)-3-(6-aminopyridin-3-yl)-N-((7-(3,5-dichlorophenyl)-5-(4-(4,4-difluoropiperidine-1-carbonyl)phenyl)benzofuran-2-yl)methyl)acrylamide], the IC50 was under 100 nM in the test with Z138 cells (setting [1]); 0.1 to 5 µM in the test with 3T3 cells (read-out: MTT Assay IC50, 3T3); under 100 nM in the test on MS751 cells (setting [2]).
Turning to `NC(=O)c1ccc(-c2cc(Cl)c3oc(CNC(=O)/C=C/c4ccc(N)nc4)cc3c2)cc1` [Compound 506, (E)-4-(2-((3-(6-aminopyridin-3-yl)acrylamido)methyl)-7-chlorobenzofuran-5-yl)benzamide], the IC50 was 100 to 5000 nM in the test with Z138 cells (read-out: MTT Assay IC50 Z-138), over 10 µM with 3T3 cells (read-out: MTT Assay IC50 3T3) and 5000 to 10000 nM in the test with MS751 cells (setting [3]).
Regarding `CS(=O)(=O)c1ccc(-c2cc(-c3ccc(F)cc3)c3oc(CNC(=O)/C=C/c4ccc(N)nc4)cc3c2)cc1` [Compound 693, (E)-3-(6-aminopyridin-3-yl)-N-((7-(4-fluorophenyl)-5-(4-(methylsulfonyl)phenyl)benzofuran-2-yl)methyl)acrylamide], the IC50 is under 100 nM in the test on Z138 cells (setting [1]); 0.1 to 5 µM with 3T3 cells (read-out: MTT Assay IC50, 3T3); under 100 nM in the test with MS751 cells (setting [2]).
On to `Nc1ccc(/C=C/C(=O)NCc2cc3cc(-c4ccc(OC(=O)N5CCOCC5)cc4)cc(Cl)c3o2)cn1` [Compound 556, (E)-4-(2-((3-(6-aminopyridin-3-yl)acrylamido)methyl)-7-chlorobenzofuran-5-yl)phenyl morpholine-4-carboxylate], for which the IC50 with Z138 cells (read-out: MTT Assay IC50 Z-138) is 100 to 5000 nM; in the test with 3T3 cells (read-out: MTT Assay IC50 3T3), over 10 µM; with MS751 cells (setting [3]) it was 100 to 5000 nM.
On to `Nc1ccc(/C=C/C(=O)NCc2cc3cc(-c4ccc(C(=O)N5CCCNCC5)cc4)cc(C(F)(F)F)c3o2)cn1` [Compound 573, (E)-N-((5-(4-(1,4-diazepane-1-carbonyl)phenyl)-7-(trifluoromethyl)benzofuran-2-yl)methyl)-3-(6-aminopyridin-3-yl)acrylamide], for which the IC50 was under 100 nM in the test with Z138 cells (read-out: MTT Assay IC50 Z-138), over 10 µM in the test with 3T3 cells (read-out: MTT Assay IC50 3T3) and under 100 nM in the test on MS751 cells (setting [3]).
Regarding `Cc1ccncc1-c1cc(-c2ccc(C(=O)N3CCC(F)(F)CC3)cc2)cc2cc(CNC(=O)/C=C/c3ccc(N)nc3)oc12` [Compound 744, (E)-3-(6-aminopyridin-3-yl)-N-((5-(4-(4,4-difluoropiperidine-1-carbonyl)phenyl)-7-(4-methylpyridin-3-yl)benzofuran-2-yl)methyl)acrylamide], the IC50 is under 100 nM in the test with Z138 cells (setting [1]); 0.1 to 5 µM in the test with 3T3 cells (read-out: MTT Assay IC50, 3T3); under 100 nM in the test on MS751 cells (setting [2]).
Turning to `Nc1ccc(/C=C/C(=O)NCc2cc3cc(-c4ccc(C(=O)N5CC6CC6C5)cn4)cc(C(F)(F)F)c3o2)cn1` (stereo not drawn) [Compound 623, (E)-N-((5-(5-(3-azabicyclo[3.1.0]hexane-3-carbonyl)pyridin-2-yl)-7-(trifluoromethyl)benzofuran-2-yl)methyl)-3-(6-aminopyridin-3-yl)acrylamide], the figures for the IC50 in the test with Z138 cells (read-out: MTT Assay IC50 Z-138), in the test on 3T3 cells (read-out: MTT Assay IC50 3T3) and in the test on MS751 cells (setting [3]) were 100 to 5000 nM, over 10 µM and 100 to 5000 nM, respectively.
On to `CN(C)c1ccc(-c2cc(Cl)c3oc(CNC(=O)/C=C/c4ccc(N)nc4)cc3c2)nc1` [Compound 646, (E)-3-(6-aminopyridin-3-yl)-N-((7-chloro-5-(5-(dimethylamino)pyridin-2-yl)benzofuran-2-yl)methyl)acrylamide], for which the IC50 in the test on Z138 cells (read-out: MTT Assay IC50 Z-138) is over 10000 nM; in the test on 3T3 cells (read-out: MTT Assay IC50 3T3) it was over 10 µM; in the test on MS751 cells (setting [3]), over 10000 nM.
As to `Nc1ccc(/C=C/C(=O)NCc2cc3cc(-c4ccc(C(=O)N5CCC(F)(F)CC5)cn4)cc(-c4ccncc4)c3o2)cn1` [Compound 666, (E)-3-(6-aminopyridin-3-yl)-N-((5-(5-(4,4-difluoropiperidine-1-carbonyl)pyridin-2-yl)-7-(pyridin-4-yl)benzofuran-2-yl)methyl)acrylamide], the IC50 was under 100 nM in the test on Z138 cells (setting [1]); 0.1 to 5 µM in the test on 3T3 cells (read-out: MTT Assay IC50, 3T3); under 100 nM in the test with MS751 cells (setting [2]).
In the case of `Nc1ccc(/C=C/C(=O)NCc2cc3cc(-c4cccc(C(=O)N5CCOCC5)c4)cc(C(F)(F)F)c3o2)cn1` [Compound 717, (E)-3-(6-aminopyridin-3-yl)-N-((5-(3-(morpholine-4-carbonyl)phenyl)-7-(trifluoromethyl)benzofuran-2-yl)methyl)acrylamide], the IC50 in the test with Z138 cells (setting [1]) is under 100 nM; in the test on 3T3 cells (read-out: MTT Assay IC50, 3T3), over 10 µM; with MS751 cells (setting [2]) it was 100 to 5000 nM.
With `Nc1ccc(/C=C/C(=O)NCc2cc3cc(-c4ccc(C(=O)N5CCC(Cl)CC5)cn4)cc(C(F)(F)F)c3o2)cn1` [Compound 614, (E)-3-(6-aminopyridin-3-yl)-N-((5-(5-(4-chloropiperidine-1-carbonyl)pyridin-2-yl)-7-(trifluoromethyl)benzofuran-2-yl)methyl)acrylamide], the IC50 is 100 to 5000 nM in the test with Z138 cells (read-out: MTT Assay IC50 Z-138), over 10 µM in the test with 3T3 cells (read-out: MTT Assay IC50 3T3) and 100 to 5000 nM with MS751 cells (setting [3]).
On to `Nc1ccc(/C=C/C(=O)NCc2cc3cc(-c4ccc(C(=O)N5CCC(F)(F)CC5)cc4)cc(-c4ccccn4)c3o2)cn1` [Compound 746, (E)-3-(6-aminopyridin-3-yl)-N-((5-(4-(4,4-difluoropiperidine-1-carbonyl)phenyl)-7-(pyridin-2-yl)benzofuran-2-yl)methyl)acrylamide], for which the IC50 in the test with Z138 cells (setting [1]) is under 100 nM; with 3T3 cells (read-out: MTT Assay IC50, 3T3), 0.1 to 5 µM; in the test on MS751 cells (setting [2]), under 100 nM.
Turning to `Nc1ccc(/C=C/C(=O)NCc2cc3cc(-c4ccc(C(=O)N5CC[C@H](F)C5)cn4)cc(C(F)(F)F)c3o2)cn1` [Compound 570, (S,E)-3-(6-aminopyridin-3-yl)-N-((5-(5-(3-fluoropyrrolidine-1-carbonyl)pyridin-2-yl)-7-(trifluoromethyl)benzofuran-2-yl)methyl)acrylamide], the IC50 is under 100 nM in the test on Z138 cells (read-out: MTT Assay IC50 Z-138), over 10 µM in the test with 3T3 cells (read-out: MTT Assay IC50 3T3) and 100 to 5000 nM with MS751 cells (setting [3]).

Broadly, the IC50 is the concentration that inhibits the measured activity by half.

Source of the values: patent US12331040B2 (Karyopharm Therapeutics Inc., priority 2013, dated 2025).
